Results reported in patent publication US12306194B2, “Reagent for fluorescence imaging of lipid droplets in cell and tissue” (NATIONAL UNIVERSITY CORPORATION GUNMA UNIVERSITY, priority 2019, dated 2025).

Experiments:
[1] = system: lipid droplets in HeLa cells; assay: Multicolor imaging and time-course imaging of lipid droplet formation in HeLa cells; type: cell-based
Protocol: Further, HeLa cells were cultured for 30 minutes in a medium to which PC6S was added to a final concentration of 100 nM, and PC6S unincorporated in the cells was removed, followed by acquiring a fluorescence imaging image (Hour 0) using an inverted fluorescence microscope in the same manner as in Example 2. The cells were cultured in the presence of 400 μM oleic acid for 24 hours, and their fluorescence imaging images were acquired 4, 8, 12, and 24 hours later.

[2] = system: lipid droplets in HeLa cells; assay: Fluorescence imaging of lipid droplets in oleic acid-treated HeLa cells; type: cell-based
Excerpt: Since LipiDye requires use of an excitation wavelength of about 405 nm, there is a concern about phototoxicity to cells in cases of long observation.

[3] = system: adipose tissue and lipid droplets; assay: Fluorescence imaging of adipose tissues and lipid droplets in a mouse; type: in vivo, mouse (BALB/cAJcl); settings: 50 nmol
Protocol: Fluorescence imaging of lipid droplets in a body tissue, and of an adipose tissue, using PC6S is described below. […] Therefore, PC6S cannot be administered to mice. In view of this, 5 mM stock solution was added (at 10% in terms of the volume ratio) to physiological saline supplemented with 10% bovine serum albumin. […] Regarding administration of MNs-NB, a stock solution in DMSO is directly administered to mice. Since administration of DMSO may cause death of mice from shock, the administration method in the present invention is thought to be a safer method. Here, 100 to 200 μL of 500 μM solution (50 to 100 nmol) was administered to the tail vein of a mouse under anesthesia, and a fluorescence imaging experiment was carried out using a confocal laser microscope (excitation wavelength, 488 nm; monitoring wavelength, 510 to 560 nm). In the present experiment, a microscope capable of acquiring fluorescence lifetime images as well as fluorescence intensity images (FLIM: fluorescence lifetime imaging microscope) (Simple-Tau-150-DX; Becker & Hickl) was used. The animal experiment was carried out in accordance with the animal experiment safety regulations in Gunma University.
In an individual, various adipose tissues and lipid droplets are present. Their imaging was carried out using PC6S. […]

[4] = system: 3T3-L1 cells (adipocytes); assay: Intracellular retention property in 3T3-L1 cells; type: cell-based
Protocol: Using a fluorescence microscope (IX71, manufactured by Olympus Corporation), fluorescence imaging images of cells were acquired over time, and the photostability (It/I0) and the retention property were measured.
For evaluation of the intracellular retention property of each reagent, each fluorescent reagent was added to 3T3-L1 cells (adipocytes) to a final concentration of 100 nM (for Lipi-Green, 500 nM), and imaging images were acquired after 30 minutes of culture and 24 hours after washing away of the reagent.

Question: Which results are given for CCN(CC)c1ccc2cc3cc(-c4nc5ccccc5s4)c(=O)oc3cc2c1 [PC6S, 3-(Benzo[d]thiazol-2-yl)-8-(diethylamino)-2H-benzo[g]chromen-2-one]?
Answer: imaging of lipid droplet formation over time ([1]; 100 nM, then 400 μM oleic acid, 4, 8, 12 and 24 hours): the process of gradual formation of lipid droplets could be imaged over time; multicolor imaging ([1]; combined use with Hoechst 33342 and Mito tracker red): multicolor imaging was possible; imaging of lipid droplets / lipid droplet selectivity in HeLa cells ([2]; 100 nM reagent, 30 minutes, 400 μM oleic acid 48 hours): capable of clear imaging of lipid droplets; fluorescence intensity of HeLa cells ([2]; 100 nM reagent, 30 minutes, compared with BODIPY493/503 or Lipi Green): higher fluorescence intensities; Brightness in cells ([2]; summary grade, Table 3): ⊚; Selectivity for lipid droplets ([2]; summary grade, Table 3): ◯; fluorescence imaging of kidney [3]: small lipid droplets distributed in tubular cells could be imaged; fluorescence imaging of subcutaneous, abdominal, pericardial adipose tissue, skeletal muscle, cardiac muscle, kidney [3]: Fluorescence derived from PC6S was found from sites containing lipid accumulated therein; intracellular retention property ([4]; 100 nM (Lipi-Green 500 nM), 3T3-L1 cells, 24 hours after washing away of the reagent): high intracellular retention properties; intracellular retention property ([4]; summary grade, Table 3): ⊚
